Laboratory results taken from paper PMC11853379, “Glioblastoma Cell Migration, Invasion and Vasculogenic Mimicry Downmodulated by Novel uPAcyclin Derivatives” (Cells, 2025).
Positions of bridges follow the written chain, without caps; N, C: chain ends. Residues, ends and D or L forms follow the SMILES beside them.

How the values were obtained:
[1] = tested on: GBM; conditions: surgical resection, radiotherapy and concomitant Temozolomide; extended from 12.1 months; cited from earlier work
Source text: Glioblastoma (GBM) is the most common malignant primary brain tumor, characterized by micro-vascular proliferation, cellular necrosis and the pronounced invasiveness of surrounding parenchima with high recurrency and a high mortality rate. […] In particular, surgery still represents an important pillar of treat ...

[2] = tested on: U87-MG cells; assay type: cell-based, human; conditions: for inhibitory activity on cell migration, comparison (in words): U87-MG migration toward 5% FBS
Description: The migration and invasion assays were performed with Boyden chambers, according to De Vincenzo et al., using 11 × 10^4 U87-MG and U251-MG glioblastoma cells/sample pre-treated for 40 min at 37 °C with the indicated effectors and then allowed to migrate for 3 h or to invade for 5 h at 37 °C toward 5% FBS in DMEM/0.1% BSA. The migrated or invaded cells were reported as a percentage of basal random migration or invasion and analyzed as reported in the Statistical Analyses section. The migration and invasion experiments were conducted in triplicate.
(§1) Figure 1 Binding of Ala peptides to U87-MG cells and effect of uPAcyclin and Ala peptides on U87-MG cellular migration. (A) A total of 2 × 10^6 U87-MG cells were pre-incubated for 30 min at 4 °C with increasing concentrations of unlabeled uPAcyclin and Ala peptides and then exposed to 50 nM of FITC-uPAcyclin for 2 h at 4 °C. Cell surface-associated fluorescence, as percentage of the sample with […], is shown. Experiments were carried out in duplicate, and the data shown here are representative of three independent experiments. (B) 11 × 10^4 U87-MG cells/sample were pre-treated for 40 min at 37 °C with increasing concentrations of uPAcyclin or the indicated Ala peptides and then assayed in Boyden chambers for 5% FBS-dependent migration for 3 h at 37 °C. At the end of incubation, the filters were processed as described in the Methods section. For clarity here and in the following Figures, Ala-x indicates the peptide with substituted x-position. For both assays, the p-values are in the range of 0.005 ≤ p ≤ 0.001, apart from [Ala1]uPAcyclin in the migration assay with p ≤ 0.05.
Alterations of the amino acid sequence may affect the peptide structure and may, in turn, alter its function. To test for differences in the inhibitory activity of the Ala-substituted peptides, U87-MG glioblastoma cells were subjected to a directional migration assay in Boyden chambers towards FBS, in the presence or in the absence of the indicated concentrations of uPAcyclin or one of its Ala-scan derivatives (Figure 1B).

[3] = molecular target: T1, integrin αV receptors on the GBM cell surface (U87-MG cells) (Homo sapiens, UniProt P06756); assay: Receptor binding assay: displacement of FITC-uPAcyclin from U87-MG living cells; conditions: for increase of binding affinity compared to uPAcyclin / binding affinity compared to uPAcyclin (in words): U87-MG cells; for binding affinity compared to uPAcyclin (in words): displacement of FITC-uPAcyclin
T1 construct: endogenous in cells; host or cells: U87-MG human glioblastoma cells (living, acid-treated, 4 °C)
Description: The U87-MG and U251-MG cell lines were harvested and acid-treated, as described. Briefly, 2 × 10^6 cells/sample were pre-incubated for 30 min at 4 °C with uPAcyclin and Ala peptides and subsequently exposed to 50 nM FITC-uPAcyclin for 2 h at 4 °C, as described. The experiments were performed three times, with duplicate samples, and analyzed as reported in the statistical analysis.
This assay confirmed that FITC-uPAcyclin binds specifically to both GBM cell lines and to the HEK-293/αV, whereas little interaction is detected with HEK-293 cells (Supporting Information, Table S7). […] To investigate the ability of novel Ala-scan peptides to compete with uPAcyclin for binding to integrin αV receptors on the GBM cell surface, the specific interaction of FITC-conjugated uPAcyclin with U87-MG living cells was tested via a receptor binding assay. U87-MG GBM cells were pre-incubated with increasing concentrations of unlabeled Ala peptides and then exposed to FITC-uPAcyclin (Figure 1A). […] When considering the relative Kdapp of uPAcyclin variants, it can be inferred that the replacement either of each of the three prolines (Pro^2, Pro^5, Pro^6) or Lys^1 increases the binding affinity of the resulting peptide compared to uPAcyclin. In contrast, the Ala mutation of other residues is detrimental to the peptide binding affinity.
as §1

T1 sequence (P06756 31-889 limits assumed): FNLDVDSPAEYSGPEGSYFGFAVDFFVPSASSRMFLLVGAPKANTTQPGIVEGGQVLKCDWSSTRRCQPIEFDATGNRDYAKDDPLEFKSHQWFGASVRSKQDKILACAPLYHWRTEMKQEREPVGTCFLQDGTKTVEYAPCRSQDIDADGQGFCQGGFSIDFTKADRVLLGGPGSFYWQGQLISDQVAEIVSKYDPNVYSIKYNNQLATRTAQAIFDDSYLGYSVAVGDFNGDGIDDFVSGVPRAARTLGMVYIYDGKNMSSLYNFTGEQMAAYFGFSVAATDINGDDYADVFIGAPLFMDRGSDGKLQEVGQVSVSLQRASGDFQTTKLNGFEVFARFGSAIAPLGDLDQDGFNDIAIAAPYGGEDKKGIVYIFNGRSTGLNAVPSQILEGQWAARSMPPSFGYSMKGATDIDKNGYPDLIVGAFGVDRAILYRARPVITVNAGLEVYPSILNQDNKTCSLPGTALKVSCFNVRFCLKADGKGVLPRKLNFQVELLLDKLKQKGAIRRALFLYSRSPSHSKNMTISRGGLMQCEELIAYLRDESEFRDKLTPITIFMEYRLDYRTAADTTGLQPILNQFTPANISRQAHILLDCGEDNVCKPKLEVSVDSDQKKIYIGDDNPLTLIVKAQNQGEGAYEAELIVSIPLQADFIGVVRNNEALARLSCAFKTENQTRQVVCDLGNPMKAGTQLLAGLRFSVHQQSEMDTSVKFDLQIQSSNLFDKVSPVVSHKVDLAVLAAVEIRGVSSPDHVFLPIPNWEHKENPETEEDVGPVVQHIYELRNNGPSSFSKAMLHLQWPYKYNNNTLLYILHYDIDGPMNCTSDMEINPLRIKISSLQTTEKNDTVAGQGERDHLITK
T1 sequence (P06756 891-1048 limits assumed): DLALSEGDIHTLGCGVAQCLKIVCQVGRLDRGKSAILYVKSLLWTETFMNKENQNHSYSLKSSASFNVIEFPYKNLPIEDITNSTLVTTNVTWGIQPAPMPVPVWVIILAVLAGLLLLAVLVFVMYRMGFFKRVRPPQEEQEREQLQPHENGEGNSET

increase of binding affinity compared to uPAcyclin [3] | improvement in binding compared to parental uPAcyclin ([3]; GBM cells) | Compound | median overall survival [1] | IC50 of migration lower / inhibitory activity higher than parental uPAcyclin ([2]; U87-MG migration) | inhibitory activity on cell migration, comparison (in words) [2] | binding affinity compared to uPAcyclin (in words) [3]
 |  | Cn1nnc2c(C(N)=O)ncn2c1=O [Temozolomide] | 14.6 months |  |  | 
about 1 log |  | CC(=O)N[C@@H](CCCCN)C(=O)N[C@@H](C)C(=O)N[C@H]1CCC(=O)NCCCC[C@@H](C(N)=O)NC(=O)[C@H](CC(C)C)NC(=O)[C@H](CCC(=O)O)NC(=O)[C@H](CCC(=O)O)NC(=O)[C@@H]2CCCN2C(=O)[C@@H]2CCCN2C(=O)[C@H](CO)NC1=O [[Ala^2]uPAcyclin] (Ac-KAESPPEELK-NH2; lactam 3-10) |  | about 10 fold | strong inhibitors | definitely higher than that of the parental uPAcyclin
about 1 log | 10 fold | CC(=O)N[C@@H](CCCCN)C(=O)N1CCC[C@H]1C(=O)N[C@H]1CCC(=O)NCCCC[C@@H](C(N)=O)NC(=O)[C@H](CC(C)C)NC(=O)[C@H](CCC(=O)O)NC(=O)[C@H](CCC(=O)O)NC(=O)[C@@H]2CCCN2C(=O)[C@H](C)NC(=O)[C@H](CO)NC1=O [[Ala^5]uPAcyclin] (Ac-KPESAPEELK-NH2; lactam 3-10) |  |  | strong inhibitors | definitely higher than that of the parental uPAcyclin
